Measurements from patent US20250177405A1, “METHODS OF TREATING NEUROLOGICAL AND CARDIOVASCULAR CONDITIONS” (ASTROCYTE PHARMACEUTICALS, INC., priority 2021, published 2025).

Tests used:
[1] = system: traumatic brain injury (TBI) in mice; test: mouse traumatic brain injury (TBI) model; details: in vivo
Protocol: Animals and traumatic brain injury (TBI): TBI is performed with a controlled closed skull injury model as described in Talley-Watts et al. 2012 (J. Neurotrauma 30, 55-66). Following the method described therein, a pneumatic impact device is used to generate a moderate TBI leaving the skull and dura matter intact. To achieve this, C57BL/6 mice are anesthetized with isoflurane (3% induction, 1% maintenance) in 100% oxygen. A body temperature of 37° C. is maintained using a temperature-controlled heated surgical table. A small midline incision is made on the scalp using aseptic surgical techniques. A 5 mm stainless steel disc is positioned on the skull and fixed using superglue on the right parietal bone between bregma and lamda over the somatosensory cortex. The mouse is then positioned on a stage directly under the pneumatic impact tip. […] Mice are placed in a Thermo-Intensive Care Unit (Braintree Scientific model FV-1; 37° C.; 27% O2) and monitored until fully awake and moving freely. […]
Western Blot Analysis for GFAP: At selected survival times, mice are anesthetized under isoflurane and sacrificed. […] The homogenate is transferred to a 2 mL tube and centrifuged at 1000 g for 10 minutes at 4° C. and the supernatant is collected and analyzed. Protein concentration is determined by the BCA assay using a 1:50 dilution. […]

[2] = plasma protein binding (free fraction); assay type: in vitro ADME; details: mouse
Source text: (§1) Example 3 of U.S. Pat. No. 9,789,131, which is incorporated herein by reference, describes assays for determining the plasma and brain free fraction of certain compounds such as I-1. Compounds described herein may be evaluated using such assays or similar variants thereof.

[3] = brain tissue binding (free fraction); assay type: in vitro ADME, mouse; details: mouse brain tissue
Source text: as §1

[4] = system: rodent model of cerebral ischemia; test: reproduction of Roucher study: ATP decline during cerebral ischemia; assay type: in vivo, rat; details: dose of 0.02 mg/kg, rats
Source text: As part of the current study, we first reproduced the original Roucher results.
(§2) We therefore performed the same study using ^31P-ATP and measured the receptor engagement in the brain associated with the beneficial ATP effects.

[5] = molecular target: T1, A1R (Rattus norvegicus, UniProt P25099); test: estimated brain receptor occupancy of R-PIA at A1R; assay type: in vivo; details: associated with beneficial ATP effects
T1 construct: measured the receptor engagement in the brain associated with the beneficial ATP effects; from tissue; host or cells: brain of living rats (cerebral ischemia model)
T1 sequence (P25099 1-326): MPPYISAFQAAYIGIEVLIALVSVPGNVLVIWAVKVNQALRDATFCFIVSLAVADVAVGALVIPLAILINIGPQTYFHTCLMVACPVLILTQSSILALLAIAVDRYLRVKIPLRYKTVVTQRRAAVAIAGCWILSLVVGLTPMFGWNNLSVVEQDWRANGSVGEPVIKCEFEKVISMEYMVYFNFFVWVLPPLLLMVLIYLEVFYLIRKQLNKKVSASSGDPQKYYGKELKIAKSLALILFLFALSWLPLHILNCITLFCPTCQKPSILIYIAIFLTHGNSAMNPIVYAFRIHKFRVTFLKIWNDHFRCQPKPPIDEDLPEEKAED
Source text: as §2

[6] = molecular target: T2, A3R (Rattus norvegicus, UniProt P28647); test: estimated brain receptor occupancy of R-PIA at A3R; assay type: in vivo; details: associated with beneficial ATP effects
T2 sequence (P28647 1-320): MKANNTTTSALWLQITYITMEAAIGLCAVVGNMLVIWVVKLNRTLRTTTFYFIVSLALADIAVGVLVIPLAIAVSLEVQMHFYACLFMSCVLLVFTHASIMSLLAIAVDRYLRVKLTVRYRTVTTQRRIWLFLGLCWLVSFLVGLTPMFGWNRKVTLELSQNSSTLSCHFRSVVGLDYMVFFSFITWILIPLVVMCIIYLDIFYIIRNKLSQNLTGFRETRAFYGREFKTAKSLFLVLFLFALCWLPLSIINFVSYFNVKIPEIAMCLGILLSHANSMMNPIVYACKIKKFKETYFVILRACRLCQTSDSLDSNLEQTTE
Source text: as §2

[7] = molecular target: T2, A3R; details: cited from earlier work
[8] = system: reversible forebrain ischemia in the rat; details: cited from earlier work

Compound | efficacy in mouse TBI model [1] | free (unbound) fraction in plasma [2] | free (unbound) fraction in brain [3] | decline in ATP during ischemia [4] | estimated RO % for A1R [5] [%] | estimated RO % for A3R [6] [%] | Ki [7] [nM] | intracellular pH ([8]; 30-min ischemia, reference group 6.30) | effect on cerebral metabolism before ischemia ([8]; before ischemia) | phosphocreatine, % of the control level ([8]; end of 30-min ischemia, reference group 27+/−9%) | ATP, % of the control level ([8]; end of 30-min ischemia, reference group 40+/−23%) | inorganic phosphate, % of the control level ([8]; end of 30-min ischemia, reference group 905+/−229%) | recovery of PCr, ATP, Pi, and pHi to control levels ([8]; recirculation, versus reference group)
CNC(=O)[C@H]1O[C@@H](n2cnc3c(NCc4cccc(I)c4)nc(Cl)nc32)[C@H](O)[C@@H]1O [Cl-IB-MECA, 2-Chloro-N^6-(3-iodobenzyl)-adenosine-5′-N-methyluronamide, reference compound] | weakly active | 0.002 | 0.002 |  |  |  |  |  |  |  |  |  | 
C[C@H](Cc1ccccc1)Nc1ncnc2c1ncn2[C@@H]1O[C@H](CO)[C@@H](O)[C@H]1O [Compound I-25, N^6-(L-2-Phenylisopropyl)adenosine] |  |  |  | partial reversal | 16 | 1 | 158 | 6.40+/−0.10 | no effect | 43+/−11% | 58+/−12% | 672+/−210% | faster recovery
